In ChEMBL document CHEMBL3046815, “Evaluation of fungicides for the management of Botryosphaeria dieback diseases of grapevines” (Pest Manag Sci, 2012):

Assays:
Neofusicoccum australe [1] = assay: Fungicidal activity against Neofusicoccum australe J-3 assessed as mycelial growth inhibition after 48 hr; format: functional, organism-based; conditions: pooled result: one value given for 3 cell lines, strains, targets or settings
Diplodia mutila [2] = assay: Fungicidal activity against Diplodia mutila Q assessed as conidial germination inhibition after 48 hr; format: functional, organism-based; conditions: pooled result: one value given for 3 cell lines, strains, targets or settings
Neofusicoccum luteum [3] = assay: Fungicidal activity against Neofusicoccum luteum infected Pinot noir grapevine assessed as dieback lesion length at 210 g AI /100 L applied 24 hr prior inoculation to pruning wound measured after 3 months; format: functional
Neofusicoccum luteum [4] = assay: Fungicidal activity against Neofusicoccum luteum N(12)2 assessed as conidial germination inhibition after 48 hr; format: functional, organism-based; conditions: pooled result: one value given for 3 cell lines, strains, targets or settings
Diplodia mutila [5] = assay: Fungicidal activity against Diplodia mutila Q assessed as mycelial growth inhibition after 48 hr; format: functional, organism-based; conditions: pooled result: one value given for 3 cell lines, strains, targets or settings
Neofusicoccum luteum [6] = assay: Fungicidal activity against Neofusicoccum luteum N(12)2 assessed as mycelial growth inhibition after 48 hr; format: functional, organism-based; conditions: pooled result: one value given for 3 cell lines, strains, targets or settings
Neofusicoccum australe [7] = assay: Fungicidal activity against Neofusicoccum australe J-3 assessed as conidial germination inhibition after 48 hr; format: functional, organism-based; conditions: pooled result: one value given for 3 cell lines, strains, targets or settings
Neofusicoccum luteum [8] = assay: Fungicidal activity against Neofusicoccum luteum infected Pinot noir grapevine assessed as pathogen incidence at 210 g AI /100 L applied 24 hr prior inoculation to pruning wound measured after 3 months; format: functional
Neofusicoccum luteum [9] = assay: Fungicidal activity against Neofusicoccum luteum infected Pinot noir grapevine assessed as dieback lesion length at 39 g AI /100 L applied 24 hr prior inoculation to pruning wound measured after 3 months; format: functional
Neofusicoccum luteum [10] = assay: Fungicidal activity against Neofusicoccum luteum infected Pinot noir grapevine assessed as pathogen incidence at 39 g AI /100 L applied 24 hr prior inoculation to pruning wound measured after 3 months; format: functional
Neofusicoccum luteum [11] = assay: Fungicidal activity against Neofusicoccum luteum infected Pinot noir grapevine assessed as dieback lesion length at 2.5 g AI /100 L applied 24 hr prior inoculation to pruning wound measured after 3 months; format: functional
Neofusicoccum luteum [12] = assay: Fungicidal activity against Neofusicoccum luteum infected Pinot noir grapevine assessed as pathogen incidence at 2.5 g AI /100 L applied 24 hr prior inoculation to pruning wound measured after 3 months; format: functional
Neofusicoccum luteum [13] = assay: Fungicidal activity against Neofusicoccum luteum infected Pinot noir grapevine assessed as non-lesion areas compound applied 24 hr prior inoculation to pruning wound measured after 1 year; format: functional; design: concentration or dose not given beside the values
Neofusicoccum luteum [14] = assay: Fungicidal activity against Neofusicoccum luteum infected Pinot noir grapevine assessed as pathogen incidence at dieback sites compound applied 24 hr prior inoculation to pruning wound measured after 1 year; format: functional; design: concentration or dose not given beside the values
Neofusicoccum luteum [15] = assay: Fungicidal activity against Neofusicoccum luteum infected Pinot noir grapevine assessed as pathogen incidence at area beyond node compound applied 24 hr prior inoculation to pruning wound measured after 1 year; format: functional; design: concentration or dose not given beside the values
Neofusicoccum luteum [16] = assay: Fungicidal activity against Neofusicoccum luteum infected Pinot noir grapevine assessed as pathogen incidence at dieback edges compound applied 24 hr prior inoculation to pruning wound measured after 1 year; format: functional; design: concentration or dose not given beside the values
Neofusicoccum luteum [17] = assay: Fungicidal activity against Neofusicoccum luteum infected Pinot noir grapevine assessed as pathogen incidence at closest side shoot compound applied 24 hr prior inoculation to pruning wound measured after 6 months; format: functional; design: concentration or dose not given beside the values
Neofusicoccum luteum [18] = assay: Fungicidal activity against Neofusicoccum luteum infected Pinot noir grapevine assessed as mean pathogen compound applied 24 hr prior inoculation to pruning wound measured after 1 year; format: functional; design: concentration or dose not given beside the values
Neofusicoccum luteum [19] = assay: Fungicidal activity against Neofusicoccum luteum infected Pinot noir grapevine assessed as pathogen incidence at 4 g AI /100 L applied 24 hr prior inoculation to pruning wound measured after 3 months; format: functional
Neofusicoccum luteum [20] = assay: Fungicidal activity against Neofusicoccum luteum infected Pinot noir grapevine assessed as dieback lesion length at 4 g AI /100 L applied 24 hr prior inoculation to pruning wound measured after 3 months; format: functional
Neofusicoccum luteum [21] = assay: Fungicidal activity against Neofusicoccum luteum infected Pinot noir grapevine assessed as pathogen incidence at 50 g AI /100 L applied 24 hr prior inoculation to pruning wound measured after 3 months; format: functional
Neofusicoccum luteum [22] = assay: Fungicidal activity against Neofusicoccum luteum infected Pinot noir grapevine assessed as dieback lesion length at 50 g AI /100 L applied 24 hr prior inoculation to pruning wound measured after 3 months; format: functional
Neofusicoccum luteum [23] = assay: Fungicidal activity against Neofusicoccum luteum infected Pinot noir grapevine assessed as dieback lesion length at 45 g AI /100 L applied 24 hr prior inoculation to pruning wound measured after 3 months; format: functional
Neofusicoccum luteum [24] = assay: Fungicidal activity against Neofusicoccum luteum infected Pinot noir grapevine assessed as pathogen incidence at 45 g AI /100 L applied 24 hr prior inoculation to pruning wound measured after 3 months; format: functional
Neofusicoccum luteum [25] = assay: Fungicidal activity against Neofusicoccum luteum infected Pinot noir grapevine assessed as dieback lesion length at 55 g AI /100 L applied 24 hr prior inoculation to pruning wound measured after 3 months; format: functional
Neofusicoccum luteum [26] = assay: Fungicidal activity against Neofusicoccum luteum infected Pinot noir grapevine assessed as pathogen incidence at 55 g AI /100 L applied 24 hr prior inoculation to pruning wound measured after 3 months; format: functional
Neofusicoccum luteum [27] = assay: Fungicidal activity against Neofusicoccum luteum infected Pinot noir grapevine assessed as pathogen incidence at 32 g AI /100 L applied 24 hr prior inoculation to pruning wound measured after 3 months; format: functional
Neofusicoccum luteum [28] = assay: Fungicidal activity against Neofusicoccum luteum infected Pinot noir grapevine assessed as dieback lesion length at 32 g AI /100 L applied 24 hr prior inoculation to pruning wound measured after 3 months; format: functional
Neofusicoccum luteum [29] = assay: Fungicidal activity against Neofusicoccum luteum infected Pinot noir grapevine assessed as dieback lesion length at 40 g AI /100 L applied 24 hr prior inoculation to pruning wound measured after 3 months; format: functional
Neofusicoccum luteum [30] = assay: Fungicidal activity against Neofusicoccum luteum infected Pinot noir grapevine assessed as pathogen incidence at 40 g AI /100 L applied 24 hr prior inoculation to pruning wound measured after 3 months; format: functional
Neofusicoccum luteum [31] = assay: Fungicidal activity against Neofusicoccum luteum infected Pinot noir grapevine assessed as dieback lesion length at 80 g AI /100 L applied 24 hr prior inoculation to pruning wound measured after 3 months; format: functional, organism-based
Neofusicoccum luteum [32] = assay: Fungicidal activity against Neofusicoccum luteum infected Pinot noir grapevine assessed as pathogen incidence at 80 g AI /100 L applied 24 hr prior inoculation to pruning wound measured after 3 months; format: functional, organism-based

Row | Compound | EC50 (Neofusicoccum australe [1]) [mgAi/L] | EC50 (Diplodia mutila [2]) [mgAi/L] | EC50 (Neofusicoccum luteum [4]) [mgAi/L] | EC50 (Diplodia mutila [5]) [mgAi/L] | EC50 (Neofusicoccum luteum [6]) [mgAi/L] | EC50 (Neofusicoccum australe [7]) [mgAi/L] | Activity (Neofusicoccum luteum [13]) [%] | Activity (Neofusicoccum luteum [14]) [%] | Activity (Neofusicoccum luteum [15]) [%] | Activity (Neofusicoccum luteum [16]) [%] | Activity (Neofusicoccum luteum [17]) [%] | Activity (Neofusicoccum luteum [18]) [%] | also measured
1 | N#Cc1c(Cl)c(Cl)c(Cl)c(C#N)c1Cl [CHLOROTHALONIL] | 3.847 | 1.35 | 11.15 | 0.258 | 7.873 | 10.79 | – | – | – | – | – | – | Activity (Neofusicoccum luteum [3]): 51.9 mm; Activity (Neofusicoccum luteum [8]): 30%
2 | N#Cc1sc2c(=O)c3ccccc3c(=O)c=2sc1C#N [DITHIANON] | 58.897 | 11.39 | 19.11 | 44.87 | 73.41 | 19.1 | – | – | – | – | – | – | Activity (Neofusicoccum luteum [9]): 49.6 mm; Activity (Neofusicoccum luteum [10]): 30%
3 | OC(c1ccc(Cl)cc1)(c1cncnc1)c1ccccc1Cl (stereo not drawn) [FENARIMOL] | 0.58 | 0.48 | 7.44 | 0.076 | 0.399 | 22.5 | 20 | 77 | 0 | 40 | 0 | 27 | Activity (Neofusicoccum luteum [11]): 52.8 mm; Activity (Neofusicoccum luteum [12]): 20%
4 | C[Si](Cn1cncn1)(c1ccc(F)cc1)c1ccc(F)cc1 [FLUSILAZOLE] | 0.002 | 0.56 | 1.23 | 0.001 | 0.003 | 1.34 | 0 | 0 | 0 | 0 | 0 | 0 | Activity (Neofusicoccum luteum [19]): 0%; Activity (Neofusicoccum luteum [20]): 41.4 mm
5 | CC(C)NC(=O)N1CC(=O)N(c2cc(Cl)cc(Cl)c2)C1=O [IPRODIONE] | 0.273 | 0.03 | 0.04 | 0.247 | 0.314 | 0.05 | 30 | 83 | 0 | 53 | 3 | 34 | Activity (Neofusicoccum luteum [21]): 0%; Activity (Neofusicoccum luteum [22]): 39.9 mm
6 | COCC(=O)N(c1c(C)cccc1C)C(C)C(=O)OC (stereo not drawn) [METALAXYL] | 102.6 | 45.72 | 218.01 | 61.995 | 188 | 113.11 | – | – | – | – | – | – | –
7 | CCCN(CCOc1c(Cl)cc(Cl)cc1Cl)C(=O)n1ccnc1 [PROCHLORAZ] | 0.098 | 22.97 | 46.86 | 0.001 | 0.054 | 13.23 | 40 | 97 | 0 | 67 | 13 | 43 | Activity (Neofusicoccum luteum [23]): 60.5 mm; Activity (Neofusicoccum luteum [24]): 70%
8 | CC12CC1(C)C(=O)N(c1cc(Cl)cc(Cl)c1)C2=O (stereo not drawn) [PROCYMIDONE] | 0.23 | – | 0.02 | 0.227 | 0.183 | 0.01 | 20 | 70 | 0 | 40 | 7 | 27 | Activity (Neofusicoccum luteum [25]): 47.8 mm; Activity (Neofusicoccum luteum [26]): 20%
9 | CC(C)(C)C(O)(CCc1ccc(Cl)cc1)Cn1cncn1 (stereo not drawn) [TEBUCONAZOLE] | 0.098 | 0.6 | 6.23 | 0.01 | 0.076 | 3.38 | 13 | 37 | 0 | 27 | 3 | 16 | Activity (Neofusicoccum luteum [27]): 20%; Activity (Neofusicoccum luteum [28]): 50.2 mm
10 | COC(=O)NC(=S)Nc1ccccc1NC(=S)NC(=O)OC [THIOPHANATE METHYL] | 1.079 | 0.29 | 2.41 | 0.485 | 1.237 | 5.09 | 17 | 47 | 0 | 33 | 3 | 20 | Activity (Neofusicoccum luteum [29]): 53.3 mm; Activity (Neofusicoccum luteum [30]): 30%
11 | O=CNC(N1CCN(C(NC=O)C(Cl)(Cl)Cl)CC1)C(Cl)(Cl)Cl (stereo not drawn) [TRIFORINE] | 28.139 | 49.59 | 159.9 | 0.039 | 23.73 | 126.3 | – | – | – | – | – | – | –
12 | COPPER HYDROXIDE [listing 1 of 2 here] | 106.83 | 4.16 | 8.7 | 68.64 | 77.437 | 5.68 | – | – | – | – | – | – | –
13 | COPPER HYDROXIDE [listing 2 of 2 here] | – | – | – | – | – | – | – | – | – | – | – | – | Activity (Neofusicoccum luteum [31]): 41.9 mm; Activity (Neofusicoccum luteum [32]): 20%
